Measurements published in article PMC6901909, “Synergy Pattern of Short Cationic Antimicrobial Peptides Against Multidrug-Resistant Pseudomonas aeruginosa” (Frontiers in Microbiology, 2019).
Converted amounts (≈) assume the structure as drawn. Peptide text beside a SMILES is read from it.

How the values were obtained:
MDR P. aeruginosa PA253 = assay: microbe, parasite or virus in culture; type: cell-based, Pseudomonas aeruginosa
Experimental: (§1) We selected six different P. aeruginosa isolates that were described as MDR and had been isolated from clinical and municipal waste water ([Schwartz et al., 2006]). The minimal inhibitory concentration (MIC) was determined in a microdilution assay using Mueller-Hinton (MH) broth following a previously published protocol ([Wiegand et al., 2008]). Briefly, a twofold serial dilution of the antibiotics and peptides were prepared and added to a bacteria solution, resulting in 2–5 10^5 CFU/ml. The microtiter plates (polypropylene, Corning) were incubated for 18 h at 37°C and MICs were taken visually.

P. aeruginosa PA01-wt = assay: microbe, parasite or virus in culture; type: cell-based, Pseudomonas aeruginosa
Experimental: as §1

MDR P. aeruginosa PA 910 = assay: microbe, parasite or virus in culture; type: cell-based, Pseudomonas aeruginosa; settings: MDR PA 910, 18 h
Experimental: as §1

MDR P. aeruginosa PA 919 = assay: microbe, parasite or virus in culture; type: cell-based, Pseudomonas aeruginosa
Experimental: as §1

[1] = tested on: MDR isolate of P. aeruginosa (PA 910); settings: checkerboard, MHb
Experimental: The checkerboard assay was used to determine the fractional inhibitory concentrations (FICs), following the protocol described in Koneman’s Color Atlas and Textbook of Diagnostic Microbiology ([Winn et al., 2006]). Briefly, combinations of peptides and antibiotics were prepared in 96-well plates (polypropylene, Corning) in a twofold dilution series. After the addition of a log-phase bacterial inoculum of 2–5 × 10^5 CFU/ml, plates were incubated at 37°C for 18 h. The FICs were determined by visual inspection and the effects of the combinations were determined using the FICs. The FIC was computed by adding two partial FIC values, FICA—the MIC of drug A, tested in combination with drug B divided by the MIC of drug A, tested alone and FICB—the MIC of drug B, tested in combination with drug A divided by the MIC of drug B, tested alone [FIC = FICA + FICB = (MICAB/MICA) + (MICBA/MICB), where MICA and MICB are the MICs of drugs A and B alone, respectively, and MICAB and MICBA are the MIC concentrations of the drugs in combination]. Here we use the European Committee for Antimicrobial Susceptibility Testing (EUCAST) definition, which is very similar to the definition provided by [Odds, 2003], except Odds define additive effects when FIC values are between 0.5 and 1 ([European Committee for Antimicrobial Susceptibility Testing [EUCAST] of the European Society of Clinical Microbiology and Infectious Diseases [ESCMID], 2000]; [Odds, 2003]). The combination of peptide (drug A) and antibiotics (drug B) was defined as synergistic if the FIC was ≤ 0.5, indifferent if the FIC was > 0.5 but ≤ 4.0 and antagonistic if the FIC was > 4.0.

[2] = short AMPs, microdilution, Mueller-Hinton broth, 18 h at 37°C, read visually, triplicate (n = 3)

Compound | MIC against MDR isolates of PA, PA253 (MDR P. aeruginosa PA253; MDR PA253, 18 h) | MIC against PA01 wt (P. aeruginosa PA01-wt; -wt, 18 h) | MIC against PA910 in μM (peptides, Table 4) (MDR P. aeruginosa PA 910) | MIC against MDR isolates of PA, PA919 (MDR P. aeruginosa PA 919; MDR PA 919, 18 h) | other results
CC[C@H](C)[C@H](N)C(=O)N[C@@H](CC(C)C)C(=O)N[C@@H](CCCCN)C(=O)N[C@@H](Cc1c[nH]c2ccccc12)C(=O)N[C@@H](CCCCN)C(=O)N[C@@H](CCSC)C(=O)N[C@@H](Cc1ccccc1)C(=O)N[C@@H](CCCCN)C(=O)N[C@@H](Cc1c[nH]c2ccccc12)C(=O)N[C@@H](CCCCN)C(=O)N[C@@H](Cc1c[nH]c2ccccc12)C(=O)N[C@@H](Cc1ccccc1)C(=O)N[C@@H](CCCNC(=N)N)C(N)=O [Indopt 12] (H-ILKWKMFKWKWFR-NH2) | 16 µM | 2 µM (≈ 3.79 µg/mL) | 4 µM (≈ 7.59 µg/mL) | 16 µM | –
CC[C@H](C)[C@H](NC(=O)[C@@H](N)Cc1ccccc1)C(=O)N[C@@H](CCCCN)C(=O)N[C@@H](CCCNC(=N)N)C(=O)N[C@@H](CCCCN)C(=O)N[C@@H](CO)C(=O)N[C@@H](CCCNC(=N)N)C(=O)N[C@@H](Cc1c[nH]c2ccccc12)C(=O)N[C@@H](Cc1c[nH]c2ccccc12)C(=O)N[C@@H](CCCCN)C(=O)N[C@@H](Cc1c[nH]c2ccccc12)C(=O)N[C@@H](CCCNC(=N)N)C(=O)N[C@H](C(N)=O)[C@@H](C)O [Indopt 6] (H-FIKRKSRWWKWRT-NH2) | 8 to 16 µM | 4 µM (≈ 7.51 µg/mL) | 8 µM (≈ 15 µg/mL) | 32 µM | –
CC[C@H](C)[C@H](NC(=O)[C@H](CCCNC(=N)N)NC(=O)[C@H](C)NC(=O)[C@H](CC(C)C)NC(=O)[C@@H](N)CCCNC(=N)N)C(=O)N[C@H](C(=O)N[C@H](C(=O)N[C@H](C(=O)N[C@@H](CCCNC(=N)N)C(=O)N[C@@H](Cc1c[nH]c2ccccc12)C(=O)N[C@@H](C)C(=O)N[C@@H](CCCNC(=N)N)C(N)=O)[C@@H](C)CC)C(C)C)C(C)C [Peptide W10] (H-RLARIVVIRWAR-NH2) | 16 µM | 16 µM (≈ 24.1 µg/mL) | – | 16 µM | MIC against MDR isolates of PA, PA910 (MDR P. aeruginosa PA 910): 16 µM
CC[C@H](C)[C@H](N)C(=O)N[C@@H](CC(C)C)C(=O)N[C@@H](CCCCN)C(=O)N[C@@H](Cc1c[nH]c2ccccc12)C(=O)N[C@@H](CCCCN)C(=O)N[C@H](C(=O)N[C@@H](Cc1ccccc1)C(=O)N[C@@H](CCCCN)C(=O)N[C@@H](Cc1c[nH]c2ccccc12)C(=O)N[C@@H](CCCCN)C(=O)N[C@@H](Cc1c[nH]c2ccccc12)C(=O)N[C@@H](Cc1ccccc1)C(=O)N[C@@H](CCCNC(=N)N)C(N)=O)[C@@H](C)CC [Indopt 10] (H-ILKWKIFKWKWFR-NH2) | 8 to 16 µM | 2 µM (≈ 3.76 µg/mL) | 4 µM (≈ 7.51 µg/mL) | 32 µM | –
CC[C@H](C)[C@H](NC(=O)[C@H](CCCNC(=N)N)NC(=O)[C@H](Cc1c[nH]c2ccccc12)NC(=O)[C@H](CCCNC(=N)N)NC(=O)[C@H](CCCNC(=N)N)NC(=O)[C@@H](N)CCCCN)C(=O)N[C@@H](Cc1c[nH]c2ccccc12)C(=O)N[C@@H](CC(C)C)C(=O)N[C@H](C(N)=O)C(C)C [LOP3] (H-KRRWRIWLV-NH2) | 4 to 8 µM | 4 µM (≈ 5.25 µg/mL) | 8 µM (≈ 10.5 µg/mL) | 4 µM | –
N=C(N)NCCC[C@H](NC(=O)[C@H](CCCNC(=N)N)NC(=O)[C@@H](N)Cc1ccccc1)C(=O)N[C@@H](Cc1c[nH]c2ccccc12)C(=O)N[C@@H](Cc1c[nH]c2ccccc12)C(=O)N[C@@H](CCCCN)C(=O)N[C@@H](Cc1c[nH]c2ccccc12)C(=O)N[C@@H](Cc1ccccc1)C(=O)N[C@@H](CCCCN)C(N)=O [HHC-53] (H-FRRWWKWFK-NH2) | 8 µM | 8 µM (≈ 11.5 µg/mL) | 32 µM (≈ 46 µg/mL) | 16 µM | –
CC[C@H](C)[C@H](NC(=O)[C@@H](N)Cc1ccccc1)C(=O)N[C@@H](CCCCN)C(=O)N[C@@H](Cc1c[nH]c2ccccc12)C(=O)N[C@@H](CCCCN)C(=O)N[C@@H](CCCCN)C(=O)N[C@@H](CCCNC(=N)N)C(=O)N[C@@H](Cc1c[nH]c2ccccc12)C(=O)N[C@@H](Cc1c[nH]c2ccccc12)C(=O)N[C@@H](CCCCN)C(=O)N[C@@H](CCCCN)C(=O)N[C@@H](CCCNC(=N)N)C(=O)N[C@H](C(N)=O)[C@@H](C)O [Indopt 1] (H-FIKWKKRWWKKRT-NH2) | 16 µM | 4 µM (≈ 7.56 µg/mL) | 8 µM (≈ 15.1 µg/mL) | 32 µM | –
CC[C@H](C)[C@H](NC(=O)[C@@H](N)Cc1ccccc1)C(=O)N[C@@H](CCCCN)C(=O)N[C@@H](Cc1c[nH]c2ccccc12)C(=O)N[C@@H](CCCNC(=N)N)C(=O)N[C@@H](Cc1ccccc1)C(=O)N[C@@H](CCCNC(=N)N)C(=O)N[C@@H](CCCNC(=N)N)C(=O)N[C@@H](Cc1c[nH]c2ccccc12)C(=O)N[C@@H](CCCCN)C(=O)N[C@@H](CCCCN)C(=O)N[C@@H](CCCNC(=N)N)C(=O)N[C@H](C(N)=O)[C@@H](C)O [Indopt 2] (H-FIKWRFRRWKKRT-NH2) | 16 µM | 4 µM (≈ 7.63 µg/mL) | 8 µM (≈ 15.3 µg/mL) | 32 µM | –
CC[C@H](C)[C@H](N)C(=O)N[C@@H](CC(C)C)C(=O)N1CCC[C@H]1C(=O)N[C@@H](Cc1c[nH]c2ccccc12)C(=O)N[C@@H](CCCCN)C(=O)N[C@@H](Cc1c[nH]c2ccccc12)C(=O)N1CCC[C@H]1C(=O)N[C@@H](Cc1c[nH]c2ccccc12)C(=O)N[C@@H](Cc1c[nH]c2ccccc12)C(=O)N1CCC[C@H]1C(=O)N[C@@H](Cc1c[nH]c2ccccc12)C(=O)N[C@@H](CCCNC(=N)N)C(=O)N[C@@H](CCCNC(=N)N)C(N)=O [Indolic., indolicidin] | – | – | – | – | MIC against MDR isolates of PA, PA253 (MDR P. aeruginosa PA253; [2]): 64 to 128 µM; MIC against PA01 wt (P. aeruginosa PA01-wt; [2]): 8 µM (≈ 15.3 µg/mL); MIC against MDR isolates of PA, PA919 (MDR P. aeruginosa PA 919; [2]): 32 µM; FIC mean (SD), combination with CET ([1]; confirmation study, peptide + ceftazidime, Indopt versions 1/8 MHb, mean of at least three measurements (n = 3), SD in brackets): 0.71 (0.21); FIC, combination with AMI ([1]; peptide + amikacin, for the Indopt versions 1/8 MHb, 2–5 × 10^5 CFU/ml, 37°C, 18 h, visual, determined once (n = 1)): 0.75; FIC, combination with CEF ([1]; peptide + cefepime, for the Indopt versions 1/8 MHb, 2–5 × 10^5 CFU/ml, 37°C, 18 h, visual, determined once (n = 1)): 2; FIC, combination with CET ([1]; peptide + ceftazidime, for the Indopt versions 1/8 MHb, 2–5 × 10^5 CFU/ml, 37°C, 18 h, visual, determined once (n = 1)): 0.51; FIC, combination with CIP ([1]; peptide + ciprofloxacin, for the Indopt versions 1/8 MHb, 2–5 × 10^5 CFU/ml, 37°C, 18 h, visual, determined once (n = 1)): 0.5; FIC, combination with ERY ([1]; peptide + erythromycin, for the Indopt versions 1/8 MHb, 2–5 × 10^5 CFU/ml, 37°C, 18 h, visual, determined once (n = 1)): 0.63; FIC, combination with GEN ([1]; peptide + gentamycin, for the Indopt versions 1/8 MHb, 2–5 × 10^5 CFU/ml, 37°C, 18 h, visual, determined once (n = 1)): 0.5; FIC, combination with IMI ([1]; peptide + imipenem, for the Indopt versions 1/8 MHb, 2–5 × 10^5 CFU/ml, 37°C, 18 h, visual, determined once (n = 1)): 0.63; FIC, combination with KAN ([1]; peptide + kanamycin, for the Indopt versions 1/8 MHb, 2–5 × 10^5 CFU/ml, 37°C, 18 h, visual, determined once (n = 1)): 0.75; FIC, combination with MER ([1]; peptide + meropenem, for the Indopt versions 1/8 MHb, 2–5 × 10^5 CFU/ml, 37°C, 18 h, visual, determined once (n = 1)): 0.63; FIC, combination with PIP ([1]; peptide + piperacillin, for the Indopt versions 1/8 MHb, 2–5 × 10^5 CFU/ml, 37°C, 18 h, visual, determined once (n = 1)): 0.56; FIC, combination with PMB ([1]; peptide + polymyxin B, for the Indopt versions 1/8 MHb, 2–5 × 10^5 CFU/ml, 37°C, 18 h, visual, determined once (n = 1)): 0.25; FIC, combination with TET ([1]; peptide + tetracycline, for the Indopt versions 1/8 MHb, 2–5 × 10^5 CFU/ml, 37°C, 18 h, visual, determined once (n = 1)): 1; FIC, combination with TOB ([1]; peptide + tobramycin, for the Indopt versions 1/8 MHb, 2–5 × 10^5 CFU/ml, 37°C, 18 h, visual, determined once (n = 1)): 0.5
